Laboratory results from PMC3551916, “The Effects of Methionine Acquisition and Synthesis on Streptococcus Pneumoniae Growth and Virulence” (PLoS ONE, 2013).

What was measured:
MetQ [1] = biological target: T1, MetQ (Streptococcus pneumoniae, UniProt A0A0H2ZPC6); experiment: tryptophan fluorescence spectroscopy titration; format: binding
T1 construct: gene SPD_0151; His6-MetQ (Sp_0149) without the predicted N-terminal signal peptide, ligand free, cloned from strain D39

MetQ [2] = biological target: T1, MetQ; experiment: isothermal titration calorimetry (also tryptophan fluorescence, KD […]); format: binding

T1 sequence (A0A0H2ZPC6 entry or part of it): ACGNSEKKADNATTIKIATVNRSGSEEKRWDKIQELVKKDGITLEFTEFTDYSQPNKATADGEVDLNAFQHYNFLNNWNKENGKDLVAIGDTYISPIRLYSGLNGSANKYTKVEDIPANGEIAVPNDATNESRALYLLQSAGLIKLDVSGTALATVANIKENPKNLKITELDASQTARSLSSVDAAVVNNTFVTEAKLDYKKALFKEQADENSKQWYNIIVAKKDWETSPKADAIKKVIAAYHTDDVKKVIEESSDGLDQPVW

SMILES | Kd (MetQ [1]) [µM] | Kd (MetQ [2]) [µM]
NC(CCS)C(=O)O (racemic) [DL-homocysteine] | 7 ± 0.26 | –
CSCCC(C)(N)C(=O)O (racemic) [α-methyl-DL-methionine] | 30.1 ± 0.86 | –
CSCC[C@@H](N)C(=O)O [D-methionine] | 27.4 ± 0.96 | –
CSCC[C@H](N)C(=O)O [L-methionine] | – | 0.0266 ± 0.00128
